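Step 1: Grow cells in 96-well plates. Step 2: Expose to compound for 48 hours at 5 concentrations. Step 3: Interpolate endpoints linearly; if unreached, use highest concentration. GI50 = concentration required for 50% inhibition of growth.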 Activity calls are given as the source filed them. Rule as the data show it: active = GI50 up to about 1.1 µM and inactive = higher.
What was measured:
Assay in all cases: DTP human tumour cell line panel, 48 h
BT-549 = tested on: BT-549
RPMI-8226 = tested on: RPMI-8226
TK-10 = tested on: TK-10
UACC-62 = tested on: UACC-62
SNB-19 = tested on: SNB-19
SNB-75 = tested on: SNB-75
IGROV-1 = tested on: IGROV-1
T47D = tested on: T47D
A549 = tested on: A549
RXF 393 = tested on: RXF 393
UO-31 = tested on: UO-31
HOP-92 = tested on: HOP-92
Malme-3M = tested on: Malme-3M
SN12C = tested on: SN12C
LOX IMVI = tested on: LOX IMVI
SF-539 = tested on: SF-539
NCI-H226 = tested on: NCI-H226
M14 = tested on: M14
KM12 = tested on: KM12
NCI-H522 = tested on: NCI-H522

SMILES | GI50 (BT-549) | GI50 (RPMI-8226) | GI50 (TK-10) | GI50 (UACC-62) | GI50 (SNB-19) | GI50 (SNB-75) | GI50 (IGROV-1) | GI50 (T47D) | GI50 (A549) | GI50 (RXF 393) | GI50 (UO-31) | GI50 (HOP-92) | GI50 (Malme-3M) | GI50 (SN12C) | GI50 (LOX IMVI) | GI50 (SF-539) | GI50 (NCI-H226) | GI50 (M14) | GI50 (KM12) | GI50 (NCI-H522)
COc1ccc(NC/C=C/C(=C/COC(C)=O)OC(C)=O)cc1 | 1.59 µM (inactive) | 0.252 µM (active) | 1.87 µM (inactive) | 3.82 µM (inactive) | 3.27 µM (inactive) | 7.23 µM (inactive) | 1.8 µM (inactive) | 2.41 µM (inactive) | 15.3 µM (inactive) | 1.6 µM (inactive) | 12.3 µM (inactive) | 1.8 µM (inactive) | 2.34 µM (inactive) | 2.12 µM (inactive) | 2.13 µM (inactive) | 2 µM (inactive) | 19.3 µM (inactive) | 1.73 µM (inactive) | 0.448 µM (active) | 2.72 µM (inactive)
COc1cc(C2c3cc4c(cc3CC3COC(=O)N32)OCO4)cc(OC)c1OC (stereo not given) | 6.27 µM (inactive) | 3.13 µM (inactive) | > 22.9 µM (inactive) | 2.61 µM (inactive) | 4.26 µM (inactive) | 14.8 µM (inactive) | 7.13 µM (inactive) | > 100 µM (inactive) | 3.08 µM (inactive) | 1.57 µM (inactive) | 5.33 µM (inactive) | 14.1 µM (inactive) | 2.83 µM (inactive) | 4.73 µM (inactive) | 3.14 µM (inactive) | 2.39 µM (inactive) | 19.5 µM (inactive) | 3.37 µM (inactive) | 2.44 µM (inactive) | 1.57 µM (inactive)
Cc1nc2c(O)c3c(c(O)c2nc1C)C1C=CC3CC1 | 15.7 µM (inactive) | 2.92 µM (inactive) | 20.6 µM (inactive) | 21.2 µM (inactive) | > 64.1 µM (inactive) | 32.2 µM (inactive) | 7.31 µM (inactive) | 2.79 µM (inactive) | 24.9 µM (inactive) | 9.23 µM (inactive) | 12 µM (inactive) | 2.9 µM (inactive) | 12.7 µM (inactive) | 12.7 µM (inactive) | 3.53 µM (inactive) | 14.6 µM (inactive) | 29.6 µM (inactive) | 15.3 µM (inactive) | 15.7 µM (inactive) | 16 µM (inactive)
COC(=O)C1=C(OC(=O)/C=C/c2ccccc2)C(C(=O)OC)[C@@]2(O)[C@@H](C(=O)OC)[C@H](C)C[C@@H]1[C@@H]2C(=O)OC (stereo not given in full) | 15.4 µM (inactive) | 8.47 µM (inactive) | 34.4 µM (inactive) | 12.6 µM (inactive) | 26.2 µM (inactive) | 19.4 µM (inactive) | 25 µM (inactive) | 24.5 µM (inactive) | 15.3 µM (inactive) | 4.05 µM (inactive) | 17 µM (inactive) | 20.4 µM (inactive) | 15.8 µM (inactive) | 13.9 µM (inactive) | 22.1 µM (inactive) | 19.8 µM (inactive) | 41.1 µM (inactive) | 25.5 µM (inactive) | 27.9 µM (inactive) | 5.58 µM (inactive)
c1ccc2c(OCC3CO3)ccc(OCC3CO3)c2c1 (stereo not given) | 6.49 µM (inactive) | 3.04 µM (inactive) | 13.5 µM (inactive) | 3.06 µM (inactive) | 8.13 µM (inactive) | 14.6 µM (inactive) | 3.44 µM (inactive) | 1.91 µM (inactive) | 4.32 µM (inactive) | 2.63 µM (inactive) | 1.61 µM (inactive) | 5.57 µM (inactive) | 7.13 µM (inactive) | 2.22 µM (inactive) | 0.515 µM (active) | 2.21 µM (inactive) | 12.1 µM (inactive) | 3.38 µM (inactive) | 4.14 µM (inactive) | 10.4 µM (inactive)
C(/Cc1ccc2c(c1)OCO2)=N\N=C1NCCN1 | 91.2 µM (inactive) | 83.2 µM (inactive) | 61.7 µM (inactive) | > 100 µM (inactive) | > 100 µM (inactive) | 33.7 µM (inactive) | > 100 µM (inactive) | 90.6 µM (inactive) | 73.8 µM (inactive) | > 100 µM (inactive) | 42.1 µM (inactive) | 34.8 µM (inactive) | > 100 µM (inactive) | 84.7 µM (inactive) | 41.2 µM (inactive) | 79.3 µM (inactive) | 33.2 µM (inactive) | > 100 µM (inactive) | > 100 µM (inactive) | > 100 µM (inactive)
C=C(CN(C)C)C(=O)c1ccccc1 | 11.2 µM (inactive) | 4.13 µM (inactive) | 4.49 µM (inactive) | 14.8 µM (inactive) | 30.9 µM (inactive) | 17 µM (inactive) | 18.8 µM (inactive) | 2.25 µM (inactive) | 22.5 µM (inactive) | 2.33 µM (inactive) | 6.93 µM (inactive) | 2.06 µM (inactive) | 2.41 µM (inactive) | 17.4 µM (inactive) | 7.93 µM (inactive) | 8.34 µM (inactive) | 18.3 µM (inactive) | 2.31 µM (inactive) | 19.9 µM (inactive) | 1.02 µM (active)
CCCSC1=N/C(=C\c2ccco2)C(=O)N1 | > 100 µM (inactive) | > 100 µM (inactive) | > 100 µM (inactive) | > 100 µM (inactive) | > 100 µM (inactive) | 97.7 µM (inactive) | > 100 µM (inactive) | 46.2 µM (inactive) | > 100 µM (inactive) | > 100 µM (inactive) | > 100 µM (inactive) | > 100 µM (inactive) | > 100 µM (inactive) | > 100 µM (inactive) | > 100 µM (inactive) | > 100 µM (inactive) | > 100 µM (inactive) | > 100 µM (inactive) | > 100 µM (inactive) | > 100 µM (inactive)

— ChEMBL document CHEMBL1201862, “PubChem BioAssay data set” (2004)
